According to US7122624B2, “Parathyroid hormone receptor ligands” (The United States of America as represented by the …, priority 1999, dated 2006):
No end group written: not given here.

Key:
rat PTH1 receptor = molecular target: T1, rat PTH1 receptor (Rattus norvegicus, UniProt P25961); test: cAMP accumulation in COS-7 cells transiently expressing the rat PTH1 receptor; assay type: cell-based; conditions: 3.2 μM TIP(7–39), agonist rPTH(1–34); read-out: pKB as concentration (converted)
T1 construct: expressed in transfected cells; host or cells: COS-7 (transient)
T1 sequence (P25961 27-591): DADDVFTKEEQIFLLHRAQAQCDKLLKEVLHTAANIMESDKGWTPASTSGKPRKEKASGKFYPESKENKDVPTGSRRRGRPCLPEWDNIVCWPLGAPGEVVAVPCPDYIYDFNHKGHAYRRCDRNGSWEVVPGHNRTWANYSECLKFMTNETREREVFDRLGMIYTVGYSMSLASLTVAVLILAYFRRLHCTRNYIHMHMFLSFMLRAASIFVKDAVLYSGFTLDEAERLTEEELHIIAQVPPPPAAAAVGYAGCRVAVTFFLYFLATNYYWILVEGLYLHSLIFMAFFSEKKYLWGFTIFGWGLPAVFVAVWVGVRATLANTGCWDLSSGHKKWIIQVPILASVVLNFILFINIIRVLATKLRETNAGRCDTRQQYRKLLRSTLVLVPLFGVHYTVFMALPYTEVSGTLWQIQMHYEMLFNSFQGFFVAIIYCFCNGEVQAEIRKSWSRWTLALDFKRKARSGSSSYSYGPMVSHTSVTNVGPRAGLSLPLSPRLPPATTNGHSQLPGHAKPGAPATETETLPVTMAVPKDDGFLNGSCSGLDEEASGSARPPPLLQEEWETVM

human PTH1 receptor [1] = molecular target: T2, human PTH1 receptor (Homo sapiens, UniProt Q03431); test: Intracellular calcium concentration in Fluo-4-loaded HEK293 cells expressing the human PTH1 receptor; assay type: cell-based; set-up: expressed in transfected cells
T2 sequence (Q03431 27-593): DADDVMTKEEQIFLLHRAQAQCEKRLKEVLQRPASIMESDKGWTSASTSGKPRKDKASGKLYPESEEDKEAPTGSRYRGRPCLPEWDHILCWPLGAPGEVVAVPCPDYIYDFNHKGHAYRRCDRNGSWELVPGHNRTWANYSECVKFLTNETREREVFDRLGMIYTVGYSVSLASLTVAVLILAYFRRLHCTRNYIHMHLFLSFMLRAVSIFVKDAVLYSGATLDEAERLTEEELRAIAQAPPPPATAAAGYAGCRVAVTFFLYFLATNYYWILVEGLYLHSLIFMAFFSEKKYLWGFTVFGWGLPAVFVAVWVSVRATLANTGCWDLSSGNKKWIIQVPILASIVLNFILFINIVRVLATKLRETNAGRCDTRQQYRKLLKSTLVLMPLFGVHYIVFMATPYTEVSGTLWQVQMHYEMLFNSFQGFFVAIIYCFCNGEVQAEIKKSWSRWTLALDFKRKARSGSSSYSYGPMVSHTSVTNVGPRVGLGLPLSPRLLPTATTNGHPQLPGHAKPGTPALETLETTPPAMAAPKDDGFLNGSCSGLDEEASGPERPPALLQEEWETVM
Experimental: HEK293 cells stably expressing the PTH1 receptor were seeded in wells of a 96-well plate at 100,000 cells per well. The following day, medium was removed and the cells washed once with 0.1 ml Dulbecco's phosphate buffered saline containing 1 mM Ca^2+ and 1 mM Mg^2+ (DPBS). Cells were then loaded with 5 μM Fluo-4 acetoxymethyl ester, with 0.1% (w/v) Pluronic F-127 and 2.5 mM probenecid in DPBS for 1 hour at 37° C. Following two washes with DPBS supplemented with 0.1% BSA, cells were incubated in 0.1 ml of the same buffer for 30 min at 37° C. This buffer was then removed and 50 μl pre-warmed DPBS with BSA added. Baseline fluorescence was then measured for 80 sec at 37° C. in a Cytofluor 4,000 multiwell plate fluorimeter (PerSpective Biosystems, Framington, Mass.) (excitation wavelength […], emission wavelength […]). Test agents were then added and fluorescence monitored as before. Fluorescence was measured in duplicate wells of cells for each experimental condition. Cytosolic free calcium concentration ([Ca^2+]i) was calculated using the equation: [Ca^2+]i=KD(F−Fmin)/(Fmax−F) where KD is the ion dissociation constant (345 nM) for the indicator and F the fluorescence signal in arbitrary units. Fmax (maximum fluorescence at Ca^2+-saturation of the indicator) was determined by addition of 130 μM ionomycin and Fmin (background fluorescence) measured after addition of 20 mM EGTA.

human PTH1 receptor [2] = molecular target: T2, human PTH1 receptor; test: cAMP accumulation in COS-7 cells transiently expressing the human PTH1 receptor; conditions: for Kb: pKB as concentration
Experimental: (§1) COS-7 cells were grown as previously described in Clark et al. For cAMP accumulation assays COS-7 cells were transfected as previously described in Clark et al. except that transfections were performed in 10 cm tissue culture dishes using 10 μg of plasmid DNA. The cells were transferred following trypsinization to 96-well plates at a density of 50,000 cells/well the following day. Cells were used for cAMP accumulation assays three days after transfection.
(§2) Ligand-stimulated accumulation of cAMP was measured as described in Examples, using a radioimmunoassay to quantify cAMP (Clark et al., supra).
Slightly different procedures were used depending on the experimental paradigm. […] This buffer was removed and replaced with 40 μl fresh buffer. Test agents were added in a volume of 10 μl and the cells incubated for an additional 40 min at 37° C. The assay was then terminated by the addition of 50 μl 0.1 N HCl, 0.1 mM CaCl2. […] After a further 40 minutes at 37° C. the assay was terminated as described above. […] The buffer was removed and the following solutions added sequentially: 30 μl buffer containing plasma, 10 μl antagonist in buffer and 10 μl rPTH(1–34) in buffer. The cells were incubated at 37° C. for 40 minutes prior to assay termination. Human plasma was prepared by addition of EDTA to whole blood at a final concentration of 10 mM followed by centrifugation at 1,000×g for 10 minutes. The plasma supernatant was collected and stored in aliquots at −80° C. before use. cAMP was quantified using a RIA as previously described (Clark et al., supra).
For cAMP accumulation data y is the amount of cAMP produced at a given peptide concentration, min is the cAMP level in the absence of ligand, max is the maximum level produced and K is the log EC50.
The pA2 was subsequently converted to a pKB value by fixing n at unity in the linear regression analysis.

human PTH1 receptor [3] = molecular target: T2, human PTH1 receptor; test: Radioligand displacement binding to HEK293 cell membranes expressing the human PTH1 receptor
Experimental: (§3) In these assays the binding of a range of concentrations of an unlabeled ligand was measured by displacement of radioligand binding. Three methods were employed. An assay employing centrifugation to separate bound and free radioligand was used to accurately measure ligand binding parameters. A higher-throughput method employing rapid filtration was used to generate comparative ligand binding data. […] In these assays a very low concentration of radioligand was used so that the IC50 closely approximates the ligand affinity.
(§4) In the centrifugation assay cell membranes (45–50 μg), radioligand (100,000–300,000 cpm) and unlabeled ligand were incubated in a final volume of 1 ml assay buffer (20 mM HEPES, 100 mM NaCl, 1 mM EDTA, 3 mM MgSO4 pH 7.5, supplemented with 0.3% non-fat dried milk powder, 100 μM AEBSF and 1 μg/ml bacitracin) for two hours at 21° C. Membranes were collected at 18,000×g, the surface of the pellet gently washed and the radioactivity counted as described in Examples. […] Less than 20% of the total radioligand added was bound within the membrane pellet. […] (Greater than 50% of the total radioligand was bound if all the membrane in the incubation was from transfected cells).
(§5) For inhibition of radioligand binding, y is the cpm bound at a given unlabeled ligand concentration, min is non-specific binding (measured in the presence of a high concentration of the unlabeled version of the radiolabeled ligand) and max is total binding (measured in the absence of unlabeled ligand).
(§6) Binding was measured in the presence of 10 μM GTPγS to minimize complications arising from receptor-G-protein coupling, such as pseudo-irreversible binding of the agonist radioligand.
(§7) A similar assay design was used for the PTH1 and PTH2 receptor, in which radiolabeled agonist binding was displaced by the unlabeled ligands in the presence of 10 μM GTPγS. Briefly, cell membranes (45 μg), radioligand (50,000 cpm) and unlabeled ligand were incubated in a final volume of 1 ml assay buffer (20 mM HEPES, 100 mM NaCl, 1 mM EDTA, 3 mM MgSO4 pH 7.5, supplemented with 0.3% non-fat dried milk powder, 100 μM (4-(2-aminoethyl))-benzenesulfonylflouride (AEBSF), 1 μg/ml bacitracin and 10 μM GTPγS) for two hours at 21° C. Membranes were collected at 18,000×g, the surface of the pellet gently washed and the radioactivity counted as described in Examples. […] To prevent greater than 20% of the total radioligand added from binding to the membranes, 15–20 μg of membranes from transfected cells were used, made up to 45 μg with membranes from non-transfected cells.

[4] = molecular target: T3, C-terminal hemaglutinin-tagged human PTH1 receptor (Homo sapiens, UniProt Q03431); test: cAMP accumulation in COS-7 cells expressing a C-terminal hemaglutinin-tagged human PTH1 receptor; assay type: cell-based
T3 sequence (Q03431 27-593): T2 sequence (Q03431 27-593)

PTH2 receptor [5] = molecular target: T4, PTH2 receptor (Homo sapiens, UniProt P49190); test: cAMP accumulation in HEK293 cells stably expressing the human PTH2 receptor (293PTH2); assay type: cell-based; set-up: expressed in transfected cells; conditions: 293PTH2 cells
T4 sequence (P49190 25-550): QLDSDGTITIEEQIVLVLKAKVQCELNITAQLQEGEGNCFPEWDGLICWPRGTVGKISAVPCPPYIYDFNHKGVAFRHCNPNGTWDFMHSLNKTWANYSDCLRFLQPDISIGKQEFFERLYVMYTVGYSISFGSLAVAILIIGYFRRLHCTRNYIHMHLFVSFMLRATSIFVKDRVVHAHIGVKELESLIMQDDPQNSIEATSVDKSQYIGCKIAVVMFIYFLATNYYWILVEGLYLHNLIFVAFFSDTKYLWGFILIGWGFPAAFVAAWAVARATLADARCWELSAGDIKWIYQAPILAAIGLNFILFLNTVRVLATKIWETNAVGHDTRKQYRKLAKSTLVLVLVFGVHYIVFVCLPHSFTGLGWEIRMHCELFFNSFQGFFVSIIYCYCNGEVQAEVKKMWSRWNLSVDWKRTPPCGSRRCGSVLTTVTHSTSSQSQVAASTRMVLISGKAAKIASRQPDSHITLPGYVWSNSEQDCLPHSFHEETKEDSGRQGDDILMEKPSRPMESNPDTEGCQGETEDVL
Experimental: as §1, §2
For cAMP accumulation data y is the amount of cAMP produced at a given peptide concentration, min is the cAMP level in the absence of ligand and max is the maximum level produced. […] Statistical comparison of multiple means was performed initially by single-factor analysis of variance followed by post-hoc analysis with the Newman-Keuls test. Statistical comparison of two means was performed using a two-tailed Student's t-test.

human PTH1 receptor [6] = molecular target: T2, human PTH1 receptor; test: cAMP accumulation in HEK293 cells stably expressing the human PTH1 receptor (293PTH1); assay type: cell-based; set-up: expressed in transfected cells; conditions: 293PTH1 cells, cAMP
PTH2 receptor [7] = molecular target: T4, PTH2 receptor; test: Radioligand displacement binding to HEK293 cell membranes expressing the human PTH2 receptor
Experimental: as §3, §4, §5, §6, §7

DAAFRERARLLAALERRHWLNSYMHKLLVLDAP [TIP(7–39)]
Kb (rat PTH1 receptor): 310 nM | reduction of peak [Ca2+]i increase (human PTH1 receptor [1]; TIP(7–39) 1 μM against rPTH(1–34) 3 nM): 79±1% | change in [Ca2+]i (human PTH1 receptor [1]; TIP(7–39) 1 μM, rPTH(1–34) 3 nM): No change in [Ca^2+]i | accumulation of cAMP in the absence of agonist (human PTH1 receptor [2]; 240 nM TIP(7–39)): 2.0±0.05 pmol/well | accumulation of cAMP in the absence of agonist (human PTH1 receptor [2]; 760 nM TIP(7–39)): 2.2±0.05 pmol/well | accumulation of cAMP in the absence of agonist (human PTH1 receptor [2]; 2.4 μM TIP(7–39)): 2.5±0.7 pmol/well | effect of human plasma on antagonist potency (human PTH1 receptor [2]; 20% human plasma): did not reduce the antagonist potency | Schild slope (human PTH1 receptor [2]; inhibition of rPTH(1–34)-stimulated cAMP): 0.99±0.24 | Kb (human PTH1 receptor [2]; agonist PTHrP(1–34)): 110 nM | Kb (human PTH1 receptor [2]; agonist rPTH(1–34), Schild analysis): 150 nM | greater selectivity for the PTH1 receptor than [D-Tryp12, Tyr34]PTH(7–34) or PTHrP(7–34) (human PTH1 receptor [3]; PTH1 over PTH2 receptor, 10 μM GTPγS): 5.5 fold | higher affinity than TIP39 (human PTH1 receptor [3]; filtration assay, no GTPγS): 5.6 fold | higher affinity than TIP39 (human PTH1 receptor [3]; presence of 10 μM GTPγS): 12 fold | affinity for the PTH1 receptor (human PTH1 receptor [3]; summary statement): < 10 nM | activation of adenylyl cyclase activity [4]: did not detectably activate adenylyl cyclase activity | level of cAMP accumulation ([4]; 3.2 μM TIP(7–39), without ligand 0.95±0.04): 0.91±0.04 pmol/well | ligand-stimulated cAMP accumulation (PTH2 receptor [5]): loss of detectable ligand-stimulated cAMP accumulation | activation of the PTH1 receptor (human PTH1 receptor [6]): did not detectably stimulate cAMP accumulation | lower affinity than full-length TIP39 (PTH2 receptor [7]; filtration assay, no GTPγS (receptor-G-protein complex)): 70 fold | lower binding potency than full-length TIP39 (PTH2 receptor [7]; presence of 10 μM GTPγS): 32 fold
